Some test systems named below: SW-620 colon; MALME-3M melanoma; M14 melanoma; SK-OV-3 ovarian; HCC-2998 colon; HOP-92 NSCLC; NCI-H23 lung; EKVX NSCLC; HS 578T breast; SF-539 CNS; CAKI-1 renal; HCT-15 colon; HT29 colon; OVCAR-4 ovarian; NCI/ADR-RES ovarian; SF-268 CNS; SK-MEL-28 melanoma; NCI-H226 lung; OVCAR-3 ovarian; UACC-62 melanoma.
Common to all, as to experiment: NCI-60 cell line screen, 48 h

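Step 1: Grow cells in 96-well plates. Step 2: Expose to compound for 48 hours at 5 concentrations. Step 3: Interpolate endpoints linearly; if unreached, use highest concentration. At the TGI there is no net growth.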

As to `CSc1ccc(/C=C/C(=O)c2nc3ccccc3[nH]2)cc1`, the TGI was 50.3 µM in the assay on SW-620 colon; above 100 µM with MALME-3M melanoma; 36.8 µM in the assay on M14 melanoma; above 100 µM in the assay on SK-OV-3 ovarian; 23.7 µM in the assay with HCC-2998 colon; above 100 µM with HOP-92 NSCLC. Besides, the TGI in the assay on NCI-H23 lung is 89.5 µM; in the assay on EKVX NSCLC, 54.4 µM; in the assay with HS 578T breast, above 100 µM; in the assay with SF-539 CNS, above 100 µM; with CAKI-1 renal it was 6.19 µM; in the assay on HCT-15 colon, 40.6 µM. The TGI was 46.2 µM with HT29 colon; 76.9 µM with OVCAR-4 ovarian; 64.1 µM with NCI/ADR-RES ovarian; 93.6 µM in the assay with SF-268 CNS; above 100 µM in the assay on SK-MEL-28 melanoma; 56.9 µM in the assay on NCI-H226 lung. Further, the TGI worked out at 40.5 µM with OVCAR-3 ovarian and 36.2 µM with UACC-62 melanoma.
Consider `O=C1C(=Cc2cccc(Cl)c2)N=C(c2ccccc2)N1n1c(-c2ccccc2)nc2ccccc2c1=O`, for which the TGI is above 100 µM in the assay on SW-620 colon; above 100 µM in the assay on MALME-3M melanoma; 54.5 µM in the assay on M14 melanoma; above 100 µM in the assay with SK-OV-3 ovarian; above 100 µM with HCC-2998 colon; 81.4 µM with HOP-92 NSCLC. The TGI in the assay on NCI-H23 lung was 68.6 µM; in the assay with EKVX NSCLC, above 100 µM; in the assay on HS 578T breast, above 100 µM; in the assay with SF-539 CNS, above 100 µM; in the assay with CAKI-1 renal, above 100 µM; in the assay on HCT-15 colon, above 100 µM. Moreover, the TGI in the assay on HT29 colon, with OVCAR-4 ovarian, in the assay on NCI/ADR-RES ovarian, in the assay on SF-268 CNS, in the assay on SK-MEL-28 melanoma and with NCI-H226 lung was above 100 µM in each case. Moreover, the TGI in the assay with OVCAR-3 ovarian is above 100 µM; in the assay with UACC-62 melanoma, 96.2 µM.
With `C=CC(C)CCC(C/C=C(\C)CCCC(C)C)C(=C)CCCC(C)C` (stereo not given), the TGI in the assay with SW-620 colon, in the assay on MALME-3M melanoma, in the assay with M14 melanoma, in the assay with SK-OV-3 ovarian, in the assay on HCC-2998 colon and in the assay on HOP-92 NSCLC was above 100 µM in each case. The TGI in the assay with NCI-H23 lung, in the assay on EKVX NSCLC, in the assay with HS 578T breast, with SF-539 CNS, in the assay on CAKI-1 renal and with HCT-15 colon was above 100 µM each time. Further, the TGI with OVCAR-4 ovarian, in the assay with NCI/ADR-RES ovarian, in the assay with SF-268 CNS, in the assay with SK-MEL-28 melanoma, in the assay on NCI-H226 lung and with OVCAR-3 ovarian was above 100 µM each time. This molecule had a TGI in the assay on UACC-62 melanoma above 100 µM.
In the case of `CC(=O)N(C(=O)CC(=O)NNCc1ccccc1Cl)c1ccc(Cl)cc1`, the TGI in the assay on MALME-3M melanoma, with M14 melanoma, with SK-OV-3 ovarian, in the assay with HCC-2998 colon, with HOP-92 NSCLC and in the assay on NCI-H23 lung was above 10 µM throughout. Moreover, the TGI in the assay with EKVX NSCLC, with HS 578T breast, in the assay on SF-539 CNS, with CAKI-1 renal, with HCT-15 colon and with HT29 colon was above 10 µM in each case. Also, the TGI in the assay on OVCAR-4 ovarian, in the assay with NCI/ADR-RES ovarian, in the assay with SF-268 CNS, in the assay with SK-MEL-28 melanoma, in the assay on NCI-H226 lung and in the assay on OVCAR-3 ovarian was above 10 µM in each case. The TGI in the assay on UACC-62 melanoma was above 10 µM.
Take `CSC1=NC(=O)CCN1C1OCC(OC(C)=O)C(OC(C)=O)C1OC(C)=O` (stereo not given): the TGI in the assay with SW-620 colon is above 31.6 µM; in the assay on MALME-3M melanoma, 23.2 µM; with SK-OV-3 ovarian, 29.5 µM; with HCC-2998 colon it was above 31.6 µM; with HOP-92 NSCLC, 27 µM; with NCI-H23 lung, above 31.6 µM. Further, the TGI is above 31.6 µM in the assay on EKVX NSCLC; 22.5 µM with HS 578T breast; 28.7 µM in the assay with SF-539 CNS; above 31.6 µM in the assay on CAKI-1 renal; above 31.6 µM with HCT-15 colon; above 31.6 µM with HT29 colon. Besides, the TGI with OVCAR-4 ovarian was above 31.6 µM; in the assay with NCI/ADR-RES ovarian it was above 31.6 µM; with SF-268 CNS, 29.3 µM; in the assay with SK-MEL-28 melanoma it was 25.4 µM; in the assay on NCI-H226 lung, above 31.6 µM; with OVCAR-3 ovarian it was 18.6 µM. The molecule also registered a TGI with UACC-62 melanoma above 100 µM.
For the molecule `Cc1nnc(N2C(=O)C(=Cc3ccc(Cl)cc3)N=C2c2ccc(Cl)cc2)nc1/C=C\c1ccc(N(C)C)cc1`, the TGI in the assay with SW-620 colon, with MALME-3M melanoma, in the assay on M14 melanoma, in the assay on SK-OV-3 ovarian, in the assay on HCC-2998 colon and in the assay with HOP-92 NSCLC was above 100 µM in each case. Further, the TGI in the assay with NCI-H23 lung, in the assay with EKVX NSCLC, in the assay with HS 578T breast, with CAKI-1 renal, in the assay on HCT-15 colon and in the assay with HT29 colon was above 100 µM in each case. Further, the TGI with OVCAR-4 ovarian, with NCI/ADR-RES ovarian, in the assay on SF-268 CNS, with SK-MEL-28 melanoma, in the assay on NCI-H226 lung and in the assay on OVCAR-3 ovarian was above 100 µM in each case. In the assay with UACC-62 melanoma, this molecule yielded a TGI above 100 µM.
In the case of `Cc1ccc(N/N=C/C2=CC(C)(C)C(C#N)(C#N)C(O)=C2C#N)cc1`, the TGI in the assay with SW-620 colon was above 100 µM; with MALME-3M melanoma, above 100 µM; in the assay with M14 melanoma it was above 100 µM; in the assay on SK-OV-3 ovarian it was above 100 µM; with HCC-2998 colon it was above 100 µM; in the assay with HOP-92 NSCLC, 42.2 µM. The TGI was above 100 µM with NCI-H23 lung; above 100 µM with EKVX NSCLC; above 100 µM in the assay on HS 578T breast; above 100 µM in the assay with SF-539 CNS; 69.5 µM in the assay with CAKI-1 renal; above 100 µM in the assay with HT29 colon. Also, the TGI with OVCAR-4 ovarian, with NCI/ADR-RES ovarian, with SF-268 CNS, with SK-MEL-28 melanoma, in the assay with NCI-H226 lung and in the assay with OVCAR-3 ovarian was above 100 µM in each case. The molecule also displayed a TGI with UACC-62 melanoma above 100 µM.

For the origin of these results see PubChem BioAssay (NCI).
